Earlier results in patent US6461650B1, “Preparation for supplementing a beverage and method for enriching a beverage in calcium and magnesium” (Institut National de la Recherche Agronomique, priority 1998, dated 2002).

Tested on: rats
Conditions: incorporated in the diet

Substance: inulin
- digestive assimilation of calcium and magnesium: increase the digestive assimilation of calcium and magnesium
